Our source for the EC50 values is patent publication US20260317309A1, “N-HETEROCYLIC GPCR RECEPTOR AGONISTS, PHARMACEUTICAL COMPOSITIONS COMPRISING THE SAME, AND METHODS FOR THEIR USE” (Carmot Therapeutics, Inc., priority 2022, published 2026).

One may read the EC50 as the concentration that produces a half-maximal response. A higher EC50 goes with weaker potency.

Structures are written as SMILES.

In this assay the target is T1, human GLP-1 receptor (Homo sapiens, UniProt P43220).
T1 construct: expressed in transfected cells
Kind of assay: GLP-1R cAMP assay (cAMP accumulation in CHO cells stably overexpressing the human GLP-1 receptor, HitHunter kit). Format: cell-based. The following applies: CHO cells stably overexpressing human GLP-1R, 30 min, 20-point dose response in triplicate. An outline of the steps:
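CHO cells stably expressing the human receptor (10,000/well) in HBSS with 10 mM HEPES and 625 μM IBMX, given compound as a 20-point dose response in triplicate for 30 min. cAMP was read by luminescent enzyme-complementation detection after overnight incubation, and EC50 was fitted from dose-response curves.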
Background: Cyclic AMP is a second messenger, typically raised through Gs and lowered through Gi signalling.

T1 sequence (P43220 24-463): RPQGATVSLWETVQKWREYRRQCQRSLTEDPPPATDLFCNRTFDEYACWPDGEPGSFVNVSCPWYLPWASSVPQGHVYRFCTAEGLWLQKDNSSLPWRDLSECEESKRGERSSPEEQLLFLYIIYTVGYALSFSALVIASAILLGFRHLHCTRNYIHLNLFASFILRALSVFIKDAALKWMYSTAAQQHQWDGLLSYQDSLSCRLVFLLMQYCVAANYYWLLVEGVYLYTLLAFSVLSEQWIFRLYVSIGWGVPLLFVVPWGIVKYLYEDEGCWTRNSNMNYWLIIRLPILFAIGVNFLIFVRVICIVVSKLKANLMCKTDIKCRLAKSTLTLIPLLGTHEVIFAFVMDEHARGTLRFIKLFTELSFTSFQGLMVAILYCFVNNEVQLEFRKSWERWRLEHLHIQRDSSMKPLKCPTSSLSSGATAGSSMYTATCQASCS

`C[C@H]1C[C@@H](Oc2ccnc(COc3ncc(C#N)cc3F)n2)CCN1Cc1nc2ccc(C(=O)O)cc2n1CCOCC(F)(F)F` [Compound 635, 2-(((2S,4S)-4-((2-(((5-Cyano-3-fluoropyridin-2-yl)oxy)methyl)pyrimidin-4-yl)oxy)-2-methylpiperidin-1-yl)methyl)-1-(2-(2,2,2-trifluoroethoxy)ethyl)-1H-benzo[d]imidazole-6-carboxylic acid] showed an EC50 of 0.1 to 1 nM.

Consider `O=C(O)c1ccc2nc(CN3CC[C@H](Oc4ccnc(COc5ccc(Cl)cc5F)c4)C[C@@H]3CF)n(C[C@@H]3CCO3)c2c1` [Compound 555, 2-(((2R,4S)-4-((2-((4-Chloro-2-fluorophenoxy)methyl)pyridin-4-yl)oxy)-2-(fluoromethyl)piperidin-1-yl)methyl)-1-(((S)-oxetan-2-yl)methyl)-1H-benzo[d]imidazole-6-carboxylic acid], for which the half-maximal effective concentration (EC50) is < 0.1 nM.

Regarding `C[C@H](Cn1c(CN2CC[C@H](Oc3ccnc(COc4ccc(F)cc4F)n3)C[C@@H]2C)nc2ccc(C(=O)O)cc21)OCC(F)(F)F` [Compound 594, 2-{[(2S,4S)-4-({2-[(2,4-Difluorophenoxy)methyl]pyrimidin-4-yl}oxy)-2-methylpiperidin-1-yl]methyl}-1-[(2R)-2-(2,2,2-trifluoroethoxy)propyl]-1H-1,3-benzodiazole-6-carboxylic acid], the EC50 was 1 to 10 nM.

`C[C@H]1C[C@@H](Oc2ccnc(COc3ccc(F)cc3F)n2)CCN1Cc1nc2ccc(C(=O)O)cc2n1CC1(F)COC1` [Compound 582, 2-{[(2S,4S)-4-({2-[(2,4-Difluorophenoxy)methyl]pyrimidin-4-yl}oxy)-2-methylpiperidin-1-yl]methyl}-1-[(3-fluorooxetan-3-yl)methyl]-1H-1,3-benzodiazole-6-carboxylic acid] gave an EC50 of 0.1 to 1 nM.

In the case of `C[C@H]1C[C@@H](Oc2ccnc(COc3ncc(Cl)cc3F)n2)CCN1Cc1nc2c(F)cc(C(=O)O)cc2n1C[C@@H]1CCO1` [Compound 597, 2-{[(2S,4S)-4-[(2-{[(5-Chloro-3-fluoropyridin-2-yl)oxy]methyl}pyrimidin-4-yl)oxy]-2-methylpiperidin-1-yl]methyl}-4-fluoro-1-{[(2S)-oxetan-2-yl]methyl}-1H-1,3-benzodiazole-6-carboxylic acid], the EC50 was < 0.1 nM.

Consider `C[C@H]1C[C@@H](Oc2ccnc(COc3ccc(F)cc3F)n2)CCN1Cc1nc2ccc(C(=O)O)cc2n1CCOCC(F)(F)F` [Compound 588, 2-{[(2S,4S)-4-({2-[(2,4-Difluorophenoxy)methyl]pyrimidin-4-yl}oxy)-2-methylpiperidin-1-yl]methyl}-1-[2-(2,2,2-trifluoroethoxy)ethyl]-1H-1,3-benzodiazole-6-carboxylic acid], for which the EC50 was < 0.1 nM.

As for `C[C@H]1C[C@@H](Oc2ccnc(COc3ncc(F)cc3F)n2)CCN1Cc1nc2c(F)cc(C(=O)O)cc2n1C[C@@H]1CCO1` [Compound 606, 2-(((2S,4S)-4-((2-(((3,5-difluoropyridin-2-yl)oxy)methyl)pyrimidin-4-yl)oxy)-2-methylpiperidin-1-yl)methyl)-4-fluoro-1-(((S)-oxetan-2-yl)methyl)-1H-benzo[d]imidazole-6-carboxylic acid], the EC50 is < 0.1 nM.

Regarding `C[C@H]1C[C@@H](Oc2ccnc(COc3ccc(F)cc3F)n2)CCN1Cc1nc2ccc(C(=O)O)cc2n1C[C@@H]1CCOC1` [Compound 584, 2-{[(2S,4S)-4-({2-[(2,4-Difluorophenoxy)methyl]pyrimidin-4-yl}oxy)-2-methylpiperidin-1-yl]methyl}-1-{[(3S)-oxolan-3-yl]methyl}-1H-1,3-benzodiazole-6-carboxylic acid], the EC50 was in the range of 0.1 to 1 nM.

On to `CC(c1nc2ccc(C(=O)O)cc2n1C[C@@H]1CCO1)N1CC[C@H](Oc2ccnc(COc3ccc(F)cc3F)n2)C[C@@H]1C` (mixture of isomers) [Compound 568, 2-{1-[(2S,4S)-4-({2-[(2,4-difluorophenoxy)methyl]pyrimidin-4-yl}oxy)-2-methylpiperidin-1-yl]ethyl}-1-{[(2S)-oxetan-2-yl]methyl}-1H-1,3-benzodiazole-6-carboxylic acid], for which the concentration giving a half-maximal response (EC50) lay in the range of 0.1 to 1 nM.

As for `C[C@H]1C[C@@H](Oc2ccnc(COc3ccc(C#N)cc3F)n2)CCN1Cc1nc2ccc(C(=O)O)cc2n1CCOCC(F)(F)F` [Compound 596, 2-{[(2S,4S)-4-({2-[(4-Cyano-2-fluorophenoxy)methyl]pyrimidin-4-yl}oxy)-2-methylpiperidin-1-yl]methyl}-1-[2-(2,2,2-trifluoroethoxy)ethyl]-1H-1,3-benzodiazole-6-carboxylic acid], the EC50 was < 0.1 nM.

As for `C[C@H]1C[C@@H](Oc2ccnc(COc3ncc(C#N)cc3F)n2)CCN1Cc1nc2c(F)cc(C(=O)O)cc2n1C[C@@H]1CCO1` [Compound 607, 2-{[(2S,4S)-4-[(2-{[(5-Cyano-3-fluoropyridin-2-yl)oxy]methyl}pyrimidin-4-yl)oxy]-2-methylpiperidin-1-yl]methyl}-4-fluoro-1-[(oxetan-2-yl)methyl]-1H-1,3-benzodiazole-6-carboxylic acid], the EC50 is < 0.1 nM.

Turning to `C[C@H]1C[C@@H](Oc2ccnc(COc3ccc(F)cc3F)n2)CCN1Cc1nc2ccc(CCC(=O)O)cc2n1C[C@@H]1CCO1` [Compound 623, 3-(2-(((2S,4S)-4-((2-((2,4-difluorophenoxy)methyl)pyrimidin-4-yl)oxy)-2-methylpiperidin-1-yl)methyl)-1-(((S)-oxetan-2-yl)methyl)-1H-benzo[d]imidazol-6-yl) propanoic acid], the EC50 was in the range of 1 to 10 nM.

With `C[C@@H](Cn1c(CN2CC[C@H](Oc3ccnc(COc4ccc(F)cc4F)n3)C[C@@H]2C)nc2ccc(C(=O)O)cc21)OC(F)F` [Compound 591, 1-[(2S)-2-(Difluoromethoxy)propyl]-2-{[(2S,4S)-4-({2-[(2,4-difluorophenoxy)methyl]pyrimidin-4-yl}oxy)-2-methylpiperidin-1-yl]methyl}-1H-1,3-benzodiazole-6-carboxylic acid], the concentration for a half-maximal effect (EC50) fell in the range of 0.1 to 1 nM.

`C[C@H](Cn1c(CN2CC[C@H](Oc3ccnc(COc4ncc(Cl)cc4F)n3)C[C@@H]2C)nc2ccc(C(=O)O)cc21)OC(F)F` [Compound 602, 2-{[(2S,4S)-4-[(2-{[(5-Chloro-3-fluoropyridin-2-yl)oxy]methyl}pyrimidin-4-yl)oxy]-2-methylpiperidin-1-yl]methyl}-1-[(2R)-2-(difluoromethoxy)propyl]-1H-1,3-benzodiazole-6-carboxylic acid] gave an EC50 of 0.1 to 1 nM.

Compound `C[C@H]1C[C@@H](Oc2ccnc(COc3ccc(F)cc3F)n2)CCN1Cc1nc2ccc(C(=O)NS(=O)(=O)C3CC3)cc2n1C[C@@H]1CCO1` [Compound 564, N-(Cyclopropanesulfonyl)-2-{[(2S,4S)-4-({2-[(2,4-difluorophenoxy)methyl]pyrimidin-4-yl}oxy)-2-methylpiperidin-1-yl]methyl}-1-{[(2S)-oxetan-2-yl]methyl}-1H-1,3-benzodiazole-6-carboxamide] gave an EC50 of 0.1 to 1 nM.

`C[C@H]1C[C@@H](Oc2ccnc(COc3ncc(F)cc3F)n2)CCN1Cc1nc2ccc(C(=O)O)cc2n1C[C@@H]1CCCO1` [Compound 632, 2-(((2S,4S)-4-((2-(((3,5-Difluoropyridin-2-yl)oxy)methyl)pyrimidin-4-yl)oxy)-2-methylpiperidin-1-yl)methyl)-1-(((S)-tetrahydrofuran-2-yl)methyl)-1H-benzo[d]imidazole-6-carboxylic acid]: the EC50 lay in the range of 0.1 to 1 nM.

Regarding `C[C@H]1C[C@@H](Oc2ccnc(COc3ccc(F)cc3F)n2)CCN1Cc1nc2c(F)cc(C(=O)O)cc2n1C[C@@H]1CCCO1` [Compound 621, 2-(((2S,4S)-4-((2-((2,4-Difluorophenoxy)methyl)pyrimidin-4-yl)oxy)-2-methylpiperidin-1-yl)methyl)-4-fluoro-1-(((S)-tetrahydrofuran-2-yl)methyl)-1H-benzo[d]imidazole-6-carboxylic acid], the EC50 was < 0.1 nM.

The compound `C[C@H]1C[C@@H](Oc2ccnc(COc3ccc(F)cc3F)n2)CCN1Cc1nc2ccc(C(=O)O)cc2n1CC12CC(CO1)C2` [Compound 570, 2-{[(2S,4S)-4-({2-[(2,4-Difluorophenoxy)methyl]pyrimidin-4-yl}oxy)-2-methylpiperidin-1-yl]methyl}-1-({2-oxabicyclo[2.1.1]hexan-1-yl}methyl)-1H-1,3-benzodiazole-6-carboxylic acid] displayed an EC50 of 0.1 to 1 nM.

Compound `N#Cc1ccc(OCc2nccc(O[C@H]3CCN(Cc4nc5ccc(C(=O)O)cc5n4C[C@@H]4CCO4)C[C@H]3F)n2)c(F)c1` [Compound 552, 2-{[(3R,4S)-4-({2-[(4-cyano-2-fluorophenoxy)methyl]pyrimidin-4-yl}oxy)-3-fluoropiperidin-1-yl]methyl}-1-{[(2S)-oxetan-2-yl]methyl}-1H-1,3-benzodiazole-6-carboxylic acid] showed an EC50 of 0.1 to 1 nM.

Compound `C[C@H]1C[C@@H](Oc2ccnc(COc3ccc(F)cc3C#N)n2)CCN1Cc1nc2ccc(C(=O)O)cc2n1C[C@H]1CCO1` [Compound 561, 2-{[(2S,4S)-4-({2-[(2-cyano-4-fluorophenoxy)methyl]pyrimidin-4-yl}oxy)-2-methylpiperidin-1-yl]methyl}-1-{[(2R)-oxetan-2-yl]methyl}-1H-1,3-benzodiazole-6-carboxylic acid] had an EC50 of 0.1 to 1 nM.

`C[C@H]1C[C@@H](Oc2ccnc(COc3ccc(F)cc3C#N)n2)CCN1Cc1nc2ccc(C(=O)O)cc2n1C[C@H]1CCOC1` [Compound 558, 2-{[(2S,4S)-4-({2-[(2-cyano-4-fluorophenoxy)methyl]pyrimidin-4-yl}oxy)-2-methylpiperidin-1-yl]methyl}-1-{[(3R)-oxolan-3-yl]methyl}-1H-1,3-benzodiazole-6-carboxylic acid] had an EC50 of 0.1 to 1 nM.

`CC[C@@H]1C[C@H](Oc2ccnc(COc3ccc(C#N)cc3F)n2)CCN1Cc1nc2ccc(C(=O)O)cc2n1C[C@@H]1CCO1` [Compound 586, 2-{[(2R,4R)-4-({2-[(4-Cyano-2-fluorophenoxy)methyl]pyrimidin-4-yl}oxy)-2-ethylpiperidin-1-yl]methyl}-1-{[(2S)-oxetan-2-yl]methyl}-1H-1,3-benzodiazole-6-carboxylic acid] yielded an EC50 of 1 to 10 nM.
